From US20250120981A1, “MRTX1133 PHARMACEUTICAL COMPOSITIONS” (MIRATI THERAPEUTICS, INC., priority 2023, published 2025)
Where two headings read alike, the source gives them in different places.

Assay: Pharmacokinetics in humans, MRTX1133 formulation, oral, single and multiple doses
Type: in vivo
Conditions: for increase in the mean exposure: dose increased from 200 mg BID to 400 mg BID; for concentration at 0 h / concentration at 0.5 h / concentration at 1 h / concentration at 1.5 h / concentration at 2 h / concentration at 4 h / concentration at 6 h / concentration at 8 h / concentration at 12 h / concentration at 24 h / AUC(0-t) / Cmax / Tmax / AUC0-inf / concentration at 3 h / concentration at 5 h / concentration at 48 h / concentration at 72 h / concentration at 96 h / half-life: human, plasma, po; for AUC0-inf: read-out: AUC0-inf, Geo Mean
Protocol: The pharmacokinetics [PK] of the MRTX1133 formulation after oral administration has been evaluated in 25 subjects across 3 escalating dose frequencies under fasting conditions (200 mg twice daily [BID], 400 mg BID, and 800 mg BID), as well as evaluation of 400 mg BID when administered with a low-fat meal (i.e., under fed conditions). The mean (+standard deviation) single-dose and multiple-dose pharmacokinetic profiles of the evaluated doses are presented in FIG. 9 and FIG. 10, respectively. Individual single- and multiple-dose PK profiles can be found in FIG. 11. For all figures, the X-axis represents nominal time of sample collection (hours [h]) and the Y-axis represents plasma concentration (ng/mL). Table 10 lists PK data following the oral administration of a single dose and multiple doses of MRTX1133 formulation by dose level and subject.

[1] = 200 mg, multiple oral doses of 200 mg BID, fasted, mean of subjects, read-out: Plasma concentration, Mean
[2] = 200 mg, single oral dose of 200 mg, fasted, mean of subjects, read-out: Plasma concentration, Mean
[3] = 400 mg, multiple oral doses of 400 mg BID with a low-fat meal, mean of subjects, read-out: Plasma concentration, Mean
[4] = 400 mg, multiple oral doses of 400 mg BID with a low-fat meal, mean of subjects
[5] = 400 mg, multiple oral doses of 400 mg BID, fasted, mean of subjects, read-out: Plasma concentration, Mean
[6] = 400 mg, single oral dose of 400 mg with a low-fat meal, mean of subjects, read-out: Plasma concentration, Mean
[7] = 400 mg, single oral dose of 400 mg with a low-fat meal, mean of subjects
[8] = 400 mg, single oral dose of 400 mg with a low-fat meal, individual subjects, read-out: Plasma concentration
[9] = 400 mg, single oral dose of 400 mg, fasted, mean of subjects, read-out: Plasma concentration, Mean
[10] = 400 mg, single oral dose of 400 mg, fasted, individual subjects, read-out: Plasma concentration
[11] = 800 mg, multiple oral doses of 800 mg BID, fasted, Mean of subjects, read-out: Plasma concentration

SMILES: C#Cc1c(F)ccc2cc(O)cc(-c3ncc4c(N5C[C@H]6CC[C@@H](C5)N6)nc(OC[C@@]56CCCN5C[C@H](F)C6)nc4c3F)c12 [MRTX1133, 4-(4-((1R,5S)-3,8-diazabicyclo[3.2.1]octan-3-yl)-8-fluoro-2-(((2R,7aS)-2-fluorohexahydro-1Hpyrrolizin-7a-yl)methoxy)pyrido[4,3-d]pyrimidin-7-yl)-5-ethynyl-6-fluoronaphthalen-2-ol]
- increase in the mean exposure (fasted, multiple doses): ~4.4 fold
- increase in the mean exposure (fasted, single dose): approximately 1.8 fold
- change of mean single- and multiple-dose exposure (dose increased from 400 mg BID to 800 mg BID, fasted): did not change in a clinically meaningful manner
- concentration at 0 h [1]: 5.33 ng/mL
- concentration at 0.5 h [1]: 28.1 ng/mL
- concentration at 1 h [1]: 31.1 ng/mL
- concentration at 1.5 h [1]: 33.1 ng/mL
- concentration at 2 h [1]: 20.1 ng/mL
- concentration at 4 h [1]: 6.62 ng/mL
- concentration at 6 h [1]: 3.85 ng/mL
- concentration at 8 h [1]: 2.79 ng/mL
- concentration at 12 h [1]: 2.46 ng/mL
- concentration at 24 h (200 mg, multiple oral doses of 200 mg BID, fasted, individual subjects, sample taken after PM dose, read-out: Plasma concentration): 0.73 ng/mL
- AUC(0-t) (200 mg, multiple oral doses of 200 mg BID, fasted, geometric mean of subjects, read-out: AUC0-12, Geo Mean): 93.1 ng·h/mL
- AUC(0-t) (200 mg, multiple oral doses of 200 mg BID, fasted, geometric mean of subjects, read-out: AUC0-last, Geo Mean): 75.2 ng·h/mL
- Cmax (200 mg, multiple oral doses of 200 mg BID, fasted, geometric mean of subjects, read-out: Cmax, Geo Mean): 36 ng/mL
- Tmax (200 mg, multiple oral doses of 200 mg BID, fasted, median of subjects (footnote b), read-out: Tmax, Median): 1.5 h
- concentration at 0.5 h [2]: 11.1 ng/mL
- concentration at 1 h [2]: 44.3 ng/mL
- concentration at 1.5 h [2]: 39 ng/mL
- concentration at 2 h [2]: 39.3 ng/mL
- concentration at 4 h [2]: 30.4 ng/mL
- concentration at 6 h [2]: 11.9 ng/mL
- concentration at 8 h [2]: 6.58 ng/mL
- concentration at 12 h [2]: 4.44 ng/mL
- concentration at 24 h [2]: 0.521 ng/mL
- AUC(0-t) (200 mg, single oral dose of 200 mg, fasted, geometric mean of subjects, read-out: AUC0-12, Geo Mean): 148 ng·h/mL
- AUC0-inf (200 mg, single oral dose of 200 mg, fasted, geometric mean of subjects): 165 ng·h/mL
- AUC(0-t) (200 mg, single oral dose of 200 mg, fasted, geometric mean of subjects, read-out: AUC0-last, Geo Mean): 151 ng·h/mL
- Cmax (200 mg, single oral dose of 200 mg, fasted, geometric mean of subjects, read-out: Cmax, Geo Mean): 59.8 ng/mL
- Tmax (200 mg, single oral dose of 200 mg, fasted, median of subjects (footnote b), read-out: Tmax, Median): 1.5 h
- concentration at 0 h [3]: 16.7 ng/mL
- concentration at 1 h [3]: 138 ng/mL
- concentration at 2 h [3]: 66.7 ng/mL
- concentration at 3 h [4]: 55.1 ng/mL
- concentration at 4 h [3]: 100 ng/mL
- concentration at 5 h [4]: 39.8 ng/mL
- concentration at 6 h [3]: 30 ng/mL
- concentration at 8 h [3]: 23 ng/mL
- concentration at 12 h [3]: 17.3 ng/mL
- AUC(0-t) (400 mg, multiple oral doses of 400 mg BID with a low-fat meal, geometric mean of subjects, read-out: AUC0-12, Geo Mean): 310 ng·h/mL
- AUC(0-t) (400 mg, multiple oral doses of 400 mg BID with a low-fat meal, geometric mean of subjects, read-out: AUC0-last, Geo Mean): 310 ng·h/mL
- Cmax (400 mg, multiple oral doses of 400 mg BID with a low-fat meal, geometric mean of subjects, read-out: Cmax, Geo Mean): 102 ng/mL
- Tmax (400 mg, multiple oral doses of 400 mg BID with a low-fat meal, median of subjects (footnote b), read-out: Tmax, Median): 1 h
- concentration at 0 h [5]: 19.4 ng/mL
- concentration at 0.5 h [5]: 72.7 ng/mL
- concentration at 1 h [5]: 85.9 ng/mL
- concentration at 1.5 h [5]: 64.6 ng/mL
- concentration at 2 h [5]: 48.5 ng/mL
- concentration at 4 h [5]: 77.3 ng/mL
- concentration at 6 h [5]: 63.4 ng/mL
- concentration at 8 h [5]: 40.3 ng/mL
- concentration at 12 h [5]: 27.8 ng/mL
- AUC(0-t) (400 mg, multiple oral doses of 400 mg BID, fasted, geometric mean of subjects, read-out: AUC0-12, Geo Mean): 410 ng·h/mL
- AUC(0-t) (400 mg, multiple oral doses of 400 mg BID, fasted, geometric mean of subjects, read-out: AUC0-last, Geo Mean): 410 ng·h/mL
- Cmax (400 mg, multiple oral doses of 400 mg BID, fasted, geometric mean of subjects, read-out: Cmax, Geo Mean): 111 ng/mL
- Tmax (400 mg, multiple oral doses of 400 mg BID, fasted, median of subjects (footnote b), read-out: Tmax, Median): 1 h
- concentration at 1 h [6]: 46.7 ng/mL
- concentration at 2 h [6]: 43.6 ng/mL
- concentration at 3 h [7]: 43.7 ng/mL
- concentration at 4 h [6]: 59.7 ng/mL
- concentration at 5 h [7]: 53.9 ng/mL
- concentration at 6 h [6]: 43.6 ng/mL
- concentration at 8 h [6]: 20.4 ng/mL
- concentration at 12 h [6]: 11.3 ng/mL
- concentration at 24 h [8]: 7.59 ng/mL
- concentration at 24 h [6]: 7.59 ng/mL
- concentration at 48 h [8]: 3.13 ng/mL
- concentration at 48 h [6]: 3.13 ng/mL
- concentration at 72 h [8]: 2.13 ng/mL
- concentration at 72 h [6]: 2.13 ng/mL
- concentration at 96 h [8]: 1.12 ng/mL
- concentration at 96 h [6]: 1.12 ng/mL
- AUC(0-t) (400 mg, single oral dose of 400 mg with a low-fat meal, geometric mean of subjects, read-out: AUC0-12, Geo Mean): 256 ng·h/mL
- AUC0-inf (400 mg, single oral dose of 400 mg with a low-fat meal, geometric mean of subjects): 300 ng·h/mL
- AUC(0-t) (400 mg, single oral dose of 400 mg with a low-fat meal, geometric mean of subjects, read-out: AUC0-last, Geo Mean): 277 ng·h/mL
- Cmax (400 mg, single oral dose of 400 mg with a low-fat meal, geometric mean of subjects, read-out: Cmax, Geo Mean): 66.6 ng/mL
- half-life (400 mg, single oral dose of 400 mg with a low-fat meal, geometric mean of subjects, read-out: T1/2, Geo Mean (converted)): 27.2 h
- half-life (400 mg, single oral dose of 400 mg with a low-fat meal, individual subjects, read-out: T1/2 (converted)): 27.2 h
- Tmax (400 mg, single oral dose of 400 mg with a low-fat meal, median of subjects (footnote b), read-out: Tmax, Median): 4 h
- concentration at 0.5 h [9]: 42.7 ng/mL
- concentration at 1 h [9]: 52.2 ng/mL
- concentration at 1.5 h [9]: 48.9 ng/mL
- concentration at 2 h [9]: 83.3 ng/mL
- concentration at 4 h [9]: 64.4 ng/mL
- concentration at 6 h [9]: 34.5 ng/mL
- concentration at 8 h [9]: 23 ng/mL
- concentration at 12 h [9]: 11.9 ng/mL
- concentration at 24 h [10]: 3.75 ng/mL
- concentration at 24 h [9]: 3.75 ng/mL
- concentration at 48 h [10]: 1.46 ng/mL
- concentration at 48 h [9]: 1.46 ng/mL
- concentration at 72 h [10]: 0.872 ng/mL
- concentration at 72 h [9]: 0.872 ng/mL
- concentration at 96 h [10]: 0.538 ng/mL
- concentration at 96 h [9]: 0.538 ng/mL
- AUC(0-t) (400 mg, single oral dose of 400 mg, fasted, geometric mean of subjects, read-out: AUC0-12, Geo Mean): 263 ng·h/mL
- AUC0-inf (400 mg, single oral dose of 400 mg, fasted, geometric mean of subjects): 304 ng·h/mL
- AUC(0-t) (400 mg, single oral dose of 400 mg, fasted, geometric mean of subjects, read-out: AUC0-last, Geo Mean): 278 ng·h/mL
- Cmax (400 mg, single oral dose of 400 mg, fasted, geometric mean of subjects, read-out: Cmax, Geo Mean): 86.2 ng/mL
- half-life (400 mg, single oral dose of 400 mg, fasted, geometric mean of subjects, read-out: T1/2, Geo Mean (converted)): 33.3 h
- half-life (400 mg, single oral dose of 400 mg, fasted, individual subjects, read-out: T1/2 (converted)): 33.3 h
- Tmax (400 mg, single oral dose of 400 mg, fasted, median of subjects (footnote b), read-out: Tmax, Median): 2 h
- concentration at 0 h [11]: 20.6 ng/mL
- concentration at 0.5 h [11]: 97.2 ng/mL
- concentration at 1 h [11]: 137 ng/mL
- concentration at 1.5 h [11]: 107 ng/mL
- concentration at 2 h [11]: 122 ng/mL
- concentration at 4 h [11]: 138 ng/mL
- concentration at 6 h [11]: 107 ng/mL
- concentration at 8 h [11]: 56.2 ng/mL
- concentration at 12 h [11]: 14.7 ng/mL
- AUC(0-t) (800 mg, multiple oral doses of 800 mg BID, fasted, Geo Mean of subjects, read-out: AUC0-12): 347 ng·h/mL
- AUC(0-t) (800 mg, multiple oral doses of 800 mg BID, fasted, Geo Mean of subjects, read-out: AUC0-last): 477 ng·h/mL
- Cmax (800 mg, multiple oral doses of 800 mg BID, fasted, Geo Mean of subjects, read-out: Cmax): 99.5 ng/mL
- Tmax (800 mg, multiple oral doses of 800 mg BID, fasted, Median of subjects, read-out: Tmax): 2 h
